For experiment [1], the system named is Human immunodeficiency virus. Description: Antiviral activity against HIV. It is filed as functional, organism-based.
Experiment [2] deals with Human immunodeficiency virus. Description: Antiviral activity against HIV assessed as protection against viral infection by XTT-tetrazolium method. It is filed as functional.

Each structure is given as a SMILES string. Converted amounts (≈) assume the structure as drawn. The source made the active and inactive calls. The calls are words filed in the database; no cut-off is given here.

Take `CC(C)=CCC/C(C)=C/Cc1c(O)c(C)cc2c1[nH]c1ccccc12` [MAHANIMBILOL]: in experiment [1] (Human immunodeficiency virus 1), the midpoint of the response, the EC50, lay at 8.6 µg/mL (≈ 25.8 µM) and the IC50 turned out to be 23 µg/mL (≈ 69 µM). `CC(C)=CCc1cc2c(cc1O)[nH]c1ccc(C)cc12` [SIAMENOL] yielded an EC50 in experiment [1] (Human immunodeficiency virus 1) of 2.6 µg/mL (≈ 9.8 µM). Further, the Activity in experiment [2] is recorded as 50%. With `CC(C)=CCCC1(C)C=Cc2c(c(C)cc3c2[nH]c2ccccc23)O1` (stereo not given), the result in experiment [1] was inactive.

For the origin of these results see ChEMBL document CHEMBL1154556, “Siamenol, a new carbazole alkaloid from Murraya siamensis” (J Nat Prod, 2000).
